Measured values as given in article PMC7162492, “Pharmacological and pharmacokinetic profile of the novel ocular hypotensive prodrug CKLP1 in Dutch-belted pigmented rabbits” (PLoS ONE, 2020).
Several values for one entry are separate records, joined by “and”; a condition that tells them apart may be missing. Equal entries are not always repeated. Where two headings read alike, the source gives them in different places.

Assays:
[1] = parameters: method as in earlier work; details: ref Roy Chowdhury U, Viker KB, Stoltz KL, et al. J Med Chem. 2016;59(13):6221-31; cited from earlier work
[2] = Plasma pharmacokinetics after topical eye drops of CKLP1, days 1, 4 and 8 (LC-MS/MS); assay type: in vivo, Dutch-belted pigmented rabbits; details: for AUC(0-t) / Cmax / half-life / Tmax: female, Dutch-belted pigmented, rabbit, topical or ocular; for AUC(0-t) / Cmax / half-life / Tmax / Clast / Tlast: plasma; for Cmax: read-out: Cmax; for half-life: read-out: Half-life (converted); for Tmax: read-out: Tmax (converted)
Method: (§1) LC-MS/MS analysis of all fluids were performed using a Waters (Milford, MA) Acquity UPLC BEH C18 column (1.7 μm, 2.1 x 50 mm) with an Agilent EC-C18 pre-column (2.7 μm, 2.1 x 5 mm) and a gradient elution program containing ultra-pure water and acetonitrile with 2.5 mM ammonium formate, at a flow rate of 0.2 ml/min. Flavopiridol was used as an internal standard. The column and auto-sampler temperatures were maintained at 40°C and 4°C, respectively. Source parameters were capillary voltage, 2.6 kV; source temperature, 150°C; desolvation temperature, 500°C; cone gas flow, 150 L/h; and desolvation gas flow, 800 L/h. The cone voltages and collision energies for CKLP1, levcromakalim and flavopiridol were determined by MassLynx-Intellistart software, v4.1, and were 32, 34 and 72 V (cone) and 20, 14 and 30 eV (collision), respectively. The retention times were 4.5 minutes for CKLP1, 5.9 minutes for levcromakalim and 5.7 minutes for flavopiridol.
(§2) To validate accurate measurement of CKLP1 and levcromakalim, known concentrations of CKLP1 (5, 10, 25, 50, 100, 250, 500 ng/ml) and levcromakalim (1, 5, 10, 25, 50, 100, 250 ng/ml) were added to human plasma (obtained from the Mayo Clinic Division of Transfusion Medicine under an Institutional Review Board approved protocol) to make calibration curves. Quality control was determined for each run by using known quantities of CKLP1 and levcromakalim to verify that the instrument recorded values consistent with the established standard curve. The effect of carryover was evaluated by injecting blank samples before and after running the standard samples for calibration curves. Unknown samples with signal to noise ratios >10 were recorded as acceptable concentrations. Samples with signal to noise ratios <10 were reported as not detectable (ND). Controls consisted of a double blank (without analytes and internal standard) and a single blank (only internal standard). The linearity of the calibration curves was determined by plotting the ratios of analytes to internal standard peak areas. The curve was fitted by least squares regression with a 1/x weighting for both CKLP1 and levcromakalim. Data was collected from 3–6.4 minutes for CKLP1 and 4–8 minutes for both levcromakalim and flavopiridol. Waters MassLynx Intellistart software v4.1 was used for analysis.
(§3) All experiments with animals were pre-approved by the Institutional Animal Care and Use Committee of the Mayo Clinic, Rochester, MN and adhered to the recommendations in the Guide for the Care and use of Laboratory Animals of the National Institutes of Health, and the tenets of the ARVO Statement for the Use of Animals in Vision Research. Female Dutch-belted pigmented rabbits (age 7 months) were obtained from Covance Research Products, Inc. (Denver, PA). Rabbits were housed in pairs and kept in a climate controlled room with 12 h light and dark cycles. Animals had unrestrained access to water and standard rabbit food pellets at all times. Upon receipt, animals were acclimated for at least 5 days before initiation of the experiment. IOP was measured with a handheld rebound tonometer (Icare Tonovet, Colonial Medical Supply, Franconia, NH, USA) in conscious and minimally restrained, non-anesthetized rabbits as previously described. Briefly, daily IOP was calculated from the average of 3 independent IOP measurements at 3 different time points each day. These time points corresponded to 1 h, 4 h and 23 h post treatment on any given day. Rabbits that needed to be handled for IOP were subjected to sham IOP measurements for two days prior to initiation of experiment. Rabbits (n = 3) were injected intravenously through the right ear vein with CKLP1 as a bolus dose equal to 0.25 mg/kg body weight. Additional rabbits were treated topically through instillation of 50 μl eye drops of a 10 mM (4.1 mg/ml) solution of CKLP1 in sterile PBS. […]

[3] = Concentration in aqueous and vitreous humor after topical CKLP1 for 1, 4 or 8 days (LC-MS/MS); assay type: in vivo, Dutch-belted pigmented rabbits; details: topical CKLP1 both eyes, days 1, 4 and 8, collected after the 24 h blood sample; for concentration at 24 h: female, Dutch-belted pigmented, rabbit
Method: as §1, §2, §3

[4] = Plasma pharmacokinetics after single intravenous injection of CKLP1 (LC-MS/MS); assay type: in vivo, Dutch-belted pigmented rabbits
Method: as §1, §2, §3

[5] = Tissue and fluid distribution after 90 days of daily topical CKLP1 (LC-MS/MS); assay type: in vivo, Dutch-belted pigmented rabbits; details: topical eye drops 10 mM CKLP1, 90 consecutive days
Method: as §1, §2, §3

[6] = eye drops 10 mM CKLP1 both eyes once daily, Day 4
[7] = eye drops 10 mM CKLP1 both eyes once daily, Day 8
[8] = eye drops 10 mM CKLP1 both eyes, Day 1
[9] = rabbit, intravenous 0.25 mg/kg CKLP1

## CC1(C)Oc2ccc(C#N)cc2C(N2CCCC2=O)C1O (stereo not drawn) [Cromakalim, cromakalim, reference compound]
[1]
  Solubility in water: insoluble in water

## CC1(C)Oc2ccc(C#N)cc2[C@@H](N2CCCC2=O)[C@@H]1O [Levcromakalim, levcromakalim, reference compound]
[2]; [6]
  AUC(0-t): 0.0109 ± 0.006 µg·h/mL
  Cmax: 0.9 ± 0.7 ng/mL
  half-life: 25.8 ± 13.7 h
  Tmax: 3.33 h
  Clast: 0.3 ± 0.1 ng/mL
  Tlast: 24.0 ± 0.0 h
[2]; [7]
  AUC(0-t): 0.0102 ± 0.0003 µg·h/mL
  Cmax: 0.6 ± 0.3 ng/mL
  half-life: 12.2 ± 5.6 h
  Tmax: 2.33 h
  Clast: 0.2 ± 0.1 ng/mL
  Tlast: 18.7 ± 9.2 h
[2]; [8]
  AUC(0-t): 0.0061 ± 0.002 µg·h/mL
  Cmax: 0.4 ± 0.1 ng/mL
  half-life: 13.2 ± 2.6 h
  Tmax: 6.67 h
  Clast: 0.1 ± 0.1 ng/mL
  Tlast: 24.0 ± 0.0 h
[2]; topical 10 mM CKLP1 in the eye
  Amount in plasma after topical CKLP1: trace amounts
[3]; aqueous humor, read-out: Concentration in aqueous humor
  concentration at 24 h: < 0.3 ng/mL
[3]; vitreous humor, read-out: Concentration in vitreous humor
  concentration at 24 h: < 0.3 ng/mL
[3]
  Concentration in aqueous humor: low levels
  Concentration in vitreous humor: low levels
[4]; female, Dutch-belted pigmented, rabbit, intravenous 0.25 mg/kg CKLP1
  AUC(0-t): 0.12 ± 0.0937 µg·h/mL
[4]; female, Dutch-belted pigmented, rabbit, intravenous 0.25 mg/kg CKLP1, read-out: Cmax
  Cmax: 10.6 ± 1.2 ng/mL
[4]; female, Dutch-belted pigmented, rabbit, intravenous 0.25 mg/kg CKLP1, read-out: Half-life
  half-life: 1.42 ± 0.617 h
[4]; female, Dutch-belted pigmented, rabbit, intravenous 0.25 mg/kg CKLP1, read-out: Tmax (converted)
  Tmax: 1.02 h
[4]; intravenous CKLP1, fold less than CKLP1
  Peak concentration (Cmax) of levcromakalim relative to CKLP1: ~200 fold
[4]; [9]
  Clast: 4.4 ± 4.3 ng/mL
  Tlast: 16.0 ± 8.9 h
[5]
  Concentration in Brain: not detected
  Concentration in Heart: not detected
  Concentration in Liver: 5.9 ± 4.3 (n = 4/6) ng/g
  Concentration in Lung: 1.5 ± 0.0 ng/g and 1.5 ± 0.0 (n = 6/6) ng/g
  Concentration in Muscle: not detected
  Concentration in Plasma: no detectable levels
  Concentration in aqueous humor: 0.2 ± 0.1 (n = 4/6) ng/ml
  Concentration in vitreous humor: 0.1 ± 0.0 (n = 3/6) ng/ml
[5]; listed as levcromakalim
  Concentration in Liver: 5.9 ± 4.3 ng/g
  Concentration in aqueous humor: 0.2 ± 0.1 ng/mL
  Concentration in vitreous humor: 0.1 ± 0.0 ng/mL
